# Results reported in patent US7342025B2, “Substituted C-imidazo[1,2-a]pyridin-3-yl-methylamines” (Gruenenthal GmbH, priority 2002, dated 2008).
# Biological target: nitrogen monoxide synthase (Rattus norvegicus, UniProt P29476)
# Assay: citrulline assay, inhibition of NO synthase
# Format: biochemical
# Protocol: The IC50 value of each of the example compounds as an inhibitor of NO synthase was determined in a citrulline assay. This assay was carried out as described by D. S. Bredt and S. H. Snyder (Proc. Natl. Acad. Sci. USA (1990), 87, 682-685).
row,Structure (SMILES),IC50 [µM]
1,Cc1ccn2c(CN(C)C)c(C)nc2c1 [Example 1],4
2,"Cc1ccnc(NCc2c(C)nc3cc(C)ccn23)c1 [Example 2, (2,7-Dimethyl-imidazo[1,2-a]pyridin-3-ylmethyl)-(4-methyl-pyridin-2-yl)-amine]",2.5
